Measurements taken from patent US20150218212A1, “FLUORINATED EPOXYKETONE-BASED TETRAPEPTIDE COMPOUNDS AND USES THEREOF AS PROTEASOME INHIBITORS” (FLUORINOV PHARMA INC., priority 2012, published 2015).

Assays:
SNB-19 = assay: NCI screening panel, SNB-19 (CNS Cancer); format: cell-based, human
Method: (§1) Representative compounds of Formula I were screened using the National Cancer Institute (NCI) screening panel, which consists of a panel of human tumor cell lines, representing leukemia, melanoma, and cancers of the lung, colon, ovary, breast, prostate and renal system.
(§2) After 24 h, two plates of each cell line are fixed in situ with TCA, to represent a measurement of the cell population for each cell line at the time of drug addition (Tz). Experimental drugs are solubilised in dimethyl sulfoxide at 400-fold the desired final maximum test concentration and stored frozen prior to use. At the time of drug addition, an aliquot of frozen concentrate is thawed and diluted to twice the desired final maximum test concentration with complete medium containing 50 μg/mL gentamicin. Additional four, 10-fold or ½ log serial dilutions are made to provide a total of five drug concentrations plus control. Aliquots of 100 μl of these different drug dilutions are added to the appropriate microtiter wells already containing 100 μl of medium, resulting in the required final drug concentrations.
(§3) Following drug addition, the plates are incubated for an additional 48 h at 37° C., 5% CO2, 95% air, and 100% relative humidity. For adherent cells, the assay is terminated by the addition of cold TCA (trichloroacetic acid). Cells are fixed in situ by the gentle addition of 50 μl of cold 50% (w/v) TCA (final concentration, 10% TCA) and incubated for 60 minutes at 4° C. The supernatant is discarded, and the plates are washed five times with tap water and air dried. Sulforhodamine B (SRB) solution (100 μl) at 0.4% (w/v) in 1% acetic acid is added to each well, and plates are incubated for 10 minutes at room temperature. After staining, unbound dye is removed by washing five times with 1% acetic acid and the plates are air dried. Bound stain is subsequently solubilised with 10 mM trizma base, and the absorbance is read on an automated plate reader at a wavelength of 515 nm. For suspension cells, the methodology is the same except that the assay is terminated by fixing settled cells at the bottom of the wells by gently adding 50 μl of 80% TCA (final concentration, 16% TCA). Using the seven absorbance measurements [time zero, (Tz), control growth, (C), and test growth in the presence of drug at the five concentration levels (Ti)], the percentage growth is calculated at each of the drug concentrations levels. Percentage growth inhibition is calculated as: [(Ti−Tz)/(C−Tz)]×100 for concentrations for which Ti>/=Tz and [(Ti−Tz)/Tz]×100 for concentrations for which Ti<Tz.
(§4) Three dose response parameters are calculated for each experimental agent. Growth inhibition of 50% (GI50) is calculated from [(Ti−Tz)/(C−Tz)]×100=50, which is the drug concentration resulting in a 50% reduction in the net protein increase (as measured by SRB staining) in control cells during the drug incubation. The drug concentration resulting in total growth inhibition (TGI) is calculated from Ti=Tz. The LC50 (concentration of drug resulting in a 50% reduction in the measured protein at the end of the drug treatment as compared to that at the beginning) indicating a net loss of cells following treatment is calculated from [(Ti−Tz)/Tz]×100=−50. Values are calculated for each of these three parameters if the level of activity is reached. However, if the effect is not reached or is exceeded, the value for that parameter is expressed as greater or less than the maximum or minimum concentration tested.

OCI-AML-2 = assay: Cell viability (MTS) assay, OCI-AML-2; format: cell-based; details: Homo sapiens, OCI-AML2; OCI-AML-2, MTS, 72 hours, mean ± standard deviation
Method: Human multiple myeloma cell lines 8226, H929, JJN3, KMH11, KMS11, KMS18, LP1, MM1S, OPM2 and U266 were grown in Iscove modified Dulbecco's medium (IMDM). Human leukemia cell lines K562, OCI-AML2 and U937 were cultured in RPMI-1640 medium. Primary peripheral blood mononuclear cells were isolated from multiple myeloma patients by Ficoll density gradient centrifugation and bone marrow aspirates were obtained from multiple myeloma patients at the Princess Margaret Cancer Centre of the University Health Network (UHN; Toronto, ON, Canada). Primary cells were cultured in IMDM. The collection and use of human tissue for this study was approved by the UHN institutional ethics review board. All cell culture media were obtained from the Ontario Cancer Institute Tissue Culture Media Facility (Toronto, ON, Canada) and were supplemented with 10% fetal calf serum, […] (Hyclone, Logan, Utah). All cells were grown in a humidified incubator at 37° C. with 5% CO2.
Cellular viability was primarily assessed by 3-(4,5-dimethylthiazol-2-yl)-5-(3-carboxymethoxyphenyl)-2-(4-sulfophenyl)-2H-tetrazolium (MTS) assay according to the manufacturer's instructions (Promega; Madison, Wis.). Cells were first seeded at a density of 10,000 cells per well in tissue culture-treated 96-well plates. Two hours after seeding, cells were treated with compounds for 72 hours at concentrations as indicated. As a control, cells were treated with DMSO alone in every assay plate. Following treatment and the MTS assay, cell viability was independently confirmed by reading the optical density (O.D.) at 490 nm and by exclusion of trypan blue stain (Invitrogen; Burlington, ON, Canada). The viability of primary mononuclear cells was determined by staining with Annexin V.
Table 8 summarizes the data of representative compounds of Formula I for cell viability and CT-L proteasome activity with OCI-AML-2 and KMS-11 cell lines.

HS 578T = assay: NCI screening panel, HS 578T (Breast Cancer); format: cell-based, human
Method: as §1, §2, §3, §4

U251 = assay: NCI screening panel, U251 (CNS Cancer); format: cell-based, human
Method: as §1, §2, §3, §4

SNB-75 = assay: NCI screening panel, SNB-75 (CNS Cancer); format: cell-based, human
Method: as §1, §2, §3, §4

OVCAR-4 = assay: NCI screening panel, OVCAR-4 (Ovarian Cancer); format: cell-based, human
Method: as §1, §2, §3, §4

NCI-H226 = assay: NCI screening panel, NCI-H226 (Non-Small Cell Lung Cancer); format: cell-based, human
Method: as §1, §2, §3, §4

SN12C = assay: NCI screening panel, SN12C (Renal Cancer); format: cell-based, human
Method: as §1, §2, §3, §4

SF-539 = assay: NCI screening panel, SF-539 (CNS Cancer); format: cell-based, human
Method: as §1, §2, §3, §4

A549/ATCC = assay: NCI screening panel, A549/ATCC (Non-Small Cell Lung Cancer); format: cell-based, human
Method: as §1, §2, §3, §4

NCI-H522 = assay: NCI screening panel, NCI-H522 (Non-Small Cell Lung Cancer); format: cell-based, human
Method: as §1, §2, §3, §4

| Compound | Log10GI50 (SNB-19) | Log10LC50 (SNB-19) | Log10TGI50 (SNB-19) | IC50 (OCI-AML-2) | Log10GI50 (HS 578T) | Log10LC50 (HS 578T) | Log10TGI50 (HS 578T) | Log10GI50 (U251) | Log10LC50 (U251) | Log10TGI50 (U251) | Log10GI50 (SNB-75) | Log10LC50 (SNB-75) | Log10TGI50 (SNB-75) | Log10GI50 (OVCAR-4) | Log10LC50 (OVCAR-4) | Log10TGI50 (OVCAR-4) | Log10GI50 (NCI-H226) | Log10LC50 (NCI-H226) | Log10TGI50 (NCI-H226) | Log10GI50 (SN12C) | also measured |
| --- | --- | --- | --- | --- | --- | --- | --- | --- | --- | --- | --- | --- | --- | --- | --- | --- | --- | --- | --- | --- | --- |
| CC(C)C[C@H](NC(=O)[C@H](COC(F)F)NC(=O)[C@H](COC(F)F)NC(=O)[C@H](CCc1ccccc1)NC(=O)CN1CCOCC1)C(=O)[C@@]1(C)CO1 [Example 7, (2S)-N-[(1S)-1-(difluoromethoxymethyl)-2-[[(1S)-1-(difluoromethoxymethyl)-2-[[(1S)-3-methyl-1-[(2R)-2-methyloxirane-2-carbo-nyl]butyl]amino]-2-oxo-ethyl]amino]-2-oxo-ethyl]-2-[(2-morpholinoacetyl)amino]-4-phenyl-butanamide] | −7.14 | >−4.00 | >−4.00 | 61.1 ± 10.1 nM | −7.70 | >−4.00 | −6.05 | −7.63 | −5.04 | −6.79 | −7.65 | −4.01 | −7.16 | −7.69 | >−4.00 | >−4.00 | −7.75 | −7.08 | −7.41 | −7.46 | Log10LC50 (SN12C): −5.85; Log10TGI50 (SN12C): −6.77; Log10GI50 (SF-539): −7.74; Log10LC50 (SF-539): −4.26; Log10TGI50 (SF-539): −7.20; Log10GI50 (A549/ATCC): −7.43; Log10LC50 (A549/ATCC): >−4.00; Log10TGI50 (A549/ATCC): >−4.00; Log10GI50 (NCI-H522): −7.88; Log10LC50 (NCI-H522): −4.62; Log10TGI50 (NCI-H522): −7.20 |
| CC(C)C[C@H](NC(=O)[C@H](Cc1ccccc1)NC(=O)[C@H](COC(F)F)NC(=O)[C@H](COC(F)F)NC(=O)CN1CCOCC1)C(=O)[C@@]1(C)CO1 [Example 11, (2S)-2-[[(2S)-3-(difluoromethoxy)-2-[[(2S)-3-(difluoromethoxy)-2-[(2-morpholinoacetyl)-amino]propanoyl]amino]propanoyl]amino]-N-[(1S)-3-methyl-1-[(2R)-2-methyloxirane-2-carbonyl]butyl]-3-phenyl-propanamide] | −7.20 | >−4.00 | >−4.00 | 15.7 ± 3.56 nM | −7.70 | >−4.00 | −6.97 | −7.59 | −4.04 | −6.71 | −7.62 | >−4.00 | −7.15 | −7.68 | >−4.00 | −5.69 | −7.77 | −7.11 | −7.44 | −7.20 | Log10LC50 (SN12C): −5.39; Log10TGI50 (SN12C): −6.50; Log10GI50 (SF-539): −7.66; Log10LC50 (SF-539): −5.48; Log10TGI50 (SF-539): −7.21; Log10GI50 (A549/ATCC): −7.40; Log10TGI50 (A549/ATCC): >−4.00; Log10GI50 (NCI-H522): −7.72; Log10LC50 (NCI-H522): >−4.00; Log10TGI50 (NCI-H522): −7.15 |
| CC(C)C[C@H](NC(=O)[C@H](COC(F)F)NC(=O)[C@H](COC(F)F)NC(=O)[C@H](COC(F)F)NC(=O)CN1CCOCC1)C(=O)[C@@]1(C)CO1 [Example 17, (2S)-3-(difluoromethoxy)-N-[(1S)-1-(difluoromethoxymethyl)-2-[[(1S)-1-(difluoro-methoxymethyl)-2-[[(1S)-3-methyl-1-[(2R)-2-methyloxirane-2-carbonyl]butyl]amino]-2-oxo-ethyl]amino]-2-oxo-ethyl]-2-[(2-mor-pholinoacetyl)amino]-propanamide] | −7.16 | >−4.00 | −4.67 | 136 ± 36.8 nM | −7.15 | >−4.00 | −5.27 | −7.26 | −5.25 | −6.32 | −7.15 | >−4.00 | −6.39 | −7.23 | >−4.00 | −4.55 | −7.15 | −6.14 | −6.61 | −6.71 | Log10LC50 (SN12C): −5.06; Log10TGI50 (SN12C): −6.08; Log10GI50 (SF-539): −7.38; Log10TGI50 (SF-539): −6.67; Log10GI50 (A549/ATCC): −6.99; Log10LC50 (A549/ATCC): >−4.00; Log10TGI50 (A549/ATCC): −5.06; Log10GI50 (NCI-H522): −7.40; Log10LC50 (NCI-H522): −5.25; Log10TGI50 (NCI-H522): −6.64 |
